In test [1] the test system is Vero. Briefly: Inhibition of Escherichia coli Stx2a using african green monkey Vero cell assessed as inhibition of depurination incubated pretreated cells for 1 hr measured after 2 hrs of toxin addition. It is filed as cell-based. The note with it: time 3.0 hrs.
The subject of test [2] is Vero. The test is described as follows: Protection against Escherichia coli Stx2a-induce d african green monkey Vero cell death assessed as protection of cell viability incubated pretreated cells for 1 hr measured after 2 hrs of toxin addition. The test is classed as functional, cell-based. The note with it: Chlorocebus sabaeus, time 3.0 hrs.

Each structure is given as a SMILES string. The source made the active and inactive calls. No cut-off for these calls is given here.

In the case of `Cc1cc(C)c(-c2ccc(C(=O)O)s2)c(C)c1`, the inhibition result in the test on Vero [1] is “inactive”. Besides, the outcome with Vero [2] was inactive.
With `Cc1cccc(C)c1-c1ccc(C(=O)O)s1`, the inhibition result in the test on Vero [1] was “inactive”. The result with Vero [2] was inactive.
As to `CCc1ccccc1-c1ccc(C(=O)O)s1`, in the test with Vero [1], the inhibition result was “inactive”. In addition, in the test on Vero [2], the outcome was inactive.
As to `Cc1ccccc1-c1ccc(C(=O)O)s1`, in the test with Vero [1], the inhibition result is “inactive”. Besides, the outcome in the test on Vero [2] was inactive.
